Reference: PubChem BioAssay (NCI)
“And” between values parts separate entries of the source, which are not always exact repeats. Equal values may be shown once.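 Following 48 hours of exposure in 96-well plates, responses at five concentrations were used to interpolate endpoints linearly. The concentration for 50% growth inhibition is given as GI50. TGI marks complete inhibition of growth.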

Columns and labels:
Test in all cases: NCI anticancer screen, dose series, 48 h
SW-620 colon = system: SW-620 colon
M14 melanoma = system: M14 melanoma
MALME-3M melanoma = system: MALME-3M melanoma
TK-10 renal = system: TK-10 renal
SNB-75 CNS = system: SNB-75 CNS
HOP-62 NSCLC = system: HOP-62 NSCLC
ACHN renal = system: ACHN renal
SF-268 CNS = system: SF-268 CNS
SN12C renal = system: SN12C renal
SR leukemia = system: SR leukemia

SMILES | TGI (SW-620 colon) | TGI (M14 melanoma) | TGI (MALME-3M melanoma) | TGI (TK-10 renal) | TGI (SNB-75 CNS) | TGI (HOP-62 NSCLC) | TGI (ACHN renal) | TGI (SF-268 CNS) | TGI (SN12C renal) | GI50 (SW-620 colon) | GI50 (TK-10 renal) | GI50 (SR leukemia) | TGI (SR leukemia) | GI50 (SNB-75 CNS) | GI50 (HOP-62 NSCLC) | GI50 (ACHN renal) | GI50 (SF-268 CNS) | GI50 (SN12C renal) | GI50 (M14 melanoma) | GI50 (MALME-3M melanoma)
c1ccc2c(c1)[nH]c1c2ncc2[nH]c3ccccc3c21 | 10.3 µM | 7.99 µM | 47.1 µM | 20.1 µM | 12.1 µM | 19.4 µM | 16.3 µM | 36.8 µM | 13.6 µM |  |  |  |  |  |  |  |  |  |  | 
C/C(=C\c1ccn(-c2ccc(N)cc2F)n1)[C@@H]1C[C@@H]2O[C@]2(C)CCC[C@H](C)[C@H](O)[C@@H](C)C(=O)C(C)(C)[C@@H](O)CC(=O)O1 | > 50 µM |  |  | > 50 µM | 0.206 µM | > 50 µM | > 50 µM | > 50 µM | > 50 µM | 0.0212 µM | 0.0939 µM | 0.0236 µM | > 50 µM | 0.00766 µM | 0.0384 µM | 0.202 µM | 0.0822 µM | 0.0768 µM |  | 
CSC1(CC(=O)N2CCCCC2)C(=O)Nc2ccccc21 (stereo not drawn) | > 100 µM | > 100 µM | > 100 µM | > 100 µM | > 100 µM | > 100 µM | > 100 µM | > 100 µM |  |  |  |  |  |  |  |  |  |  |  | 
Cc1nn(C)c2cc(N(C)c3ccnc(Nc4cccc(S(N)(=O)=O)c4)n3)ccc12 | > 25 µM | > 25 µM | 21.8 µM | 24.4 µM | > 23.7 µM | > 25 µM | > 25 µM | > 25 µM | > 25 µM | 11.3 µM | 5.93 µM |  |  | 5.89 µM | > 15 µM | 6.71 µM | 6.39 µM | 6.59 µM | 8.11 µM | 4.72 µM
CC#CC(=O)N1CC[C@@H](n2c(=O)n(-c3ccc(Oc4ccccc4)cc3)c3c(N)ncnc32)C1 | > 100 µM |  | > 100 µM | > 100 µM | > 100 µM | > 100 µM | > 100 µM | > 100 µM | > 100 µM | 47.6 µM | 35 µM | 14.3 µM | > 100 µM | 29.8 µM | 33.5 µM | 21.4 µM | 30.3 µM | 20.8 µM |  | 18 µM
Cc1c(CC/C(=N\Nc2ccc([N+](=O)[O-])cc2[N+](=O)[O-])c2ccccc2)c2ccccc2n1C | > 100 µM | > 100 µM | > 100 µM | > 100 µM | > 100 µM | > 100 µM | > 100 µM | > 100 µM | > 100 µM |  |  |  |  |  |  |  |  |  |  | 
Cc1ccccc1NC(=O)c1ccc([N+](=O)[O-])cc1 | > 100 µM | > 100 µM | > 100 µM | > 100 µM | > 100 µM | > 100 µM | > 100 µM | > 100 µM | > 100 µM |  |  |  |  |  |  |  |  |  |  | 
COc1ccc(C2c3c(-c4ccccc4)nn(-c4ccccc4)c3Oc3ncn4nc(CC#N)nc4c32)cc1OC (stereo not drawn) | > 100 µM | > 100 µM and 13.3 µM |  | > 100 µM and 14.6 µM | > 100 µM and 12.2 µM |  | > 100 µM and 16.1 µM | 42.5 µM and > 36.1 µM | 44.5 µM and > 41.9 µM | 24.2 µM and > 82.3 µM | 27.8 µM and 3.31 µM |  | 33 µM |  |  |  | 16.6 µM and 3.29 µM |  | 55.6 µM and 6.33 µM | 
COc1cc(N2CCC(N3CCN(C)CC3)CC2)ccc1Nc1ncc(Cl)c(Nc2ccccc2S(=O)(=O)C(C)C)n1 | 2.52 µM | 2.51 µM | 3.46 µM | 2.43 µM | 2.17 µM | 7.98 µM | 2.61 µM | 2.44 µM | 14.2 µM | 0.337 µM | 0.79 µM |  |  | 0.919 µM | 0.414 µM | 0.76 µM | 0.813 µM | 0.613 µM | 1.16 µM | 1.32 µM
COC(=O)C1=C(C)N(NC(N)=O)C(C)(O)C12CCOC2=O (stereo not drawn) | > 100 µM | > 100 µM | > 100 µM | > 100 µM |  | > 100 µM | > 100 µM | > 100 µM | > 100 µM |  |  |  |  |  |  |  |  |  |  | 
Nc1ncnc2c1ncn2C1OC(COC2C(CO)OC(OC(C(=O)O)C(O)C(OP(=O)(O)O)C(O)C(=O)O)C(O)C2O)C(O)C1O (stereo not drawn) | > 100 µM | > 100 µM | > 100 µM | > 100 µM | > 100 µM | > 100 µM | > 100 µM | > 100 µM |  |  |  |  | > 100 µM |  |  |  |  |  |  | 
c1ccc2c3c(ccc2c1)-c1c(ccc2c(NCCCCN4CCCCC4)cccc12)C3 |  | 3.35 µM |  | 4.57 µM |  | 2.91 µM | 2.99 µM | 2.25 µM | 3.05 µM |  | 2.24 µM | 1.37 µM | 5.4 µM |  | 1.57 µM | 1.61 µM | 1.07 µM | 1.62 µM | 1.94 µM | 
Cc1cc2nc(C(Cl)Cl)nc(-c3ccccc3)n2n1 | 28 µM |  | 28.1 µM | 51.2 µM | 12.9 µM | 8.64 µM | 5.12 µM | 39.4 µM | > 100 µM | 3.22 µM | 4.73 µM | 2.3 µM | > 100 µM | 1.75 µM | 2.48 µM | 1.87 µM | 4.76 µM | 24.7 µM |  | 9.11 µM
COC1CC(OC)C(O)C(CO)O1 (stereo not drawn) | > 100 µM | > 100 µM | > 100 µM | > 100 µM | > 100 µM | > 100 µM | > 100 µM |  | > 100 µM |  |  |  | > 100 µM |  |  |  |  |  |  | 
Cc1ccc2c(c1)C=CC(C#N)N2C(=O)Oc1ccccc1 (stereo not drawn) | > 100 µM | > 100 µM | > 100 µM | 94.2 µM | > 100 µM |  | 83.3 µM | > 100 µM | > 100 µM |  |  |  | 46.8 µM |  |  |  |  |  |  | 
COc1ccc(C2C3=C(COC3=O)Oc3cc4c(cc32)OCO4)cc1 (stereo not drawn) | > 100 µM | > 100 µM | > 100 µM | > 100 µM | 39.7 µM | 51.7 µM | > 100 µM |  | > 100 µM |  |  |  |  |  |  |  |  |  |  | 
O=C(O)[C@@H](NS(=O)(=O)c1ccc([N+](=O)[O-])cc1)c1ccccc1 | > 100 µM | > 100 µM | > 100 µM | > 100 µM | > 100 µM |  | > 100 µM | > 100 µM | > 100 µM |  |  |  |  |  |  |  |  |  |  | 
CC(CN)[C@@H]1CC[C@]2(CO)CC[C@]3(C)[C@H](CC[C@@H]4[C@@]5(C)CCC(N)C(C)(C)[C@@H]5CC[C@]43C)[C@@H]12 (stereo partly drawn) | 3.43 µM | 3.76 µM | 3.29 µM | 3.1 µM | 2.82 µM | 3.55 µM | 3.22 µM | 3.29 µM | 3.67 µM | 1.8 µM | 1.69 µM |  |  | 1.41 µM | 1.84 µM | 1.77 µM | 1.65 µM | 1.91 µM | 1.9 µM | 1.54 µM
